Measurements as given in patent publication US20220409646A1, “MALTOSYL-ISOMALTO-OLIGOSACCHARIDES REDUCE SYMPTOMS OF GASTROESOPHAGEAL REFLUX DISEASE” (ISOThrive Inc., priority 2021, published 2022).

System: subjects with GERD
Conditions: human, in vivo
From the text: The study began in March 2020 when a total of 110 subjects were screened for GERD using stringent eligibility criteria by the study coordinator and the principal investigator. […] The subjects acted as their own controls and there was no placebo arm. All subjects had active symptoms as determined by verbal history and daily ReQuest (RQ) validated GERD questionnaire symptom scores above specified thresholds, or GERD symptoms at four or more days per week.
As of May 2021, 44 subjects had completed the following protocol. […] Symptom evaluation for each included: RQ_GI: acid and abdominal (upper/lower) complaints, nausea; RQ_WSO: general well-being, sleep disturbances, and other complaints; and RQ_TOT: the sum of both. The Short Form 36 Health Survey validated questionnaire (see webpage physio-pedia.com/36-Item_Short_Form_Survey_(SF-36)) was used to assess quality of life. The SF-36 form was completed by subjects on day seven of week zero as well as on each day seven per week during the study duration. The subjects had to report any usage of GERD medications such as PPIs, H2 antagonists, and acids throughout the study, as well as any changes in their other medications. The primary endpoint was tolerability, defined as ending on week four with a request symptom score and a SF-36 score that was at or better than the baseline week zero score (determined as >0% reduction in weekly mean RQ symptom scores as % from baseline to week 4). Statistical analysis was done using the Wilcoxon signed-rank test with multiple comparison correction. In addition, a comparison was made of the number of days without acid complaints per week, or the heartburn-free days per week, for week four compared to the week zero baseline.
It was taken 1 g daily at bedtime.
All subjects had active GERD symptoms as determined by the ReQuest validated GERD specific questionnaire and/or GERD symptoms at least 4 days per week. […] All subjects were screened per the eligibility criteria delineated in this protocol by the study coordinator. The study was done remotely. There was communication but no in person contact or visits with the study coordinator.
Two phases were designed into this study. Phase 1 was the Screening Phase (SP). Phase 2 was the Tolerability Phase (TP). Subjects were instructed to take a daily GERD symptom questionnaire, the ReQuest Short Version, daily throughout the study. At five timepoints, specific scores were established for comparison and statistical analysis.

In the case of “maltosyl-isomaltooligosaccharides [ISOT-101]”, the ISOT-101-related adverse events is reported as “no ISOT-101-related adverse events”, the “nausea, number of patients” value is reported as 2 patients and the “nausea, share of patients” value is reported as 5%. The “subjects who either did not improve or got worse” value was “Five”, the “tolerability (in words)” value was “well tolerated” and the “worsening of RQ_GI (gastrointestinal symptoms), number of subjects” value was 5 of 44. The “worsening of RQ_TOT (total scores), number of subjects” value was 4 of 44 and the “worsening of RQ_TOT (total scores), share of subjects” value was 9%.
